Assay results from US8563578B2, “Antitumor properties of NO modified protease inhibitors” (Onconox APS, priority 2008, dated 2013).

Experiments:
[1] = tested on: rat primary astrocytes; assay: Cell viability by CV test, primary astrocytes; type: cell-based; settings: 24 h, Sag at its IC50 dose
Excerpt: Rat glioma C6 and human glioblastoma U251 cell lines were a kind gift from Dr. Pedro Tranque (Universidad de Castilla-La Mancha, Albacete, Spain), murine melanoma B 16, and human adenocarcinoma HeLa, were a kind gift from Dr. Sinisa Radulovic (Institute for Oncology and Radiology of Serbia, Belgrade, Serbia) while mouse fibrosarcoma L929 was obtained from the European Collection of Animal Cell Cultures (Salisbury, UK). Human breast HCC1419 and prostate PC-3 cells were purchased from LGC Promochem srl (Venezia, Italy). Primary mouse fibroblasts and rat astrocytes were prepared as described (Mijatovic et al. 2004). […]
Reduction of 3-4,5-dimethylthiazol-2-yl)-2,5-diphenyltetrazolium bromide (MTT) to formazan depends on mitochondrial activity of cultured cells, absorption of crystal violet dye correlates with the number of adherent, live cells, while the release of cytosolic lactate dehydrogenase (LDH) indicates the disruption of membrane integrity caracteristic for necrotic cells. […] Mitohondrial-dependent production of formazan and intensity of absorbed crystal violet by adherent cells were assessed by an automated microplate reader at 570 nm, while the pyruvate-mediated conversion of 2,4-dinitrophenylhydrazine into visible hydrazone precipitate in LDH assay was measured at 492 nm. […]
FIG. 2. […] Cell viability was then evaluated by CV test. […]

[2] = tested on: B16 cells; assay: Cell cycle / apoptosis by propidium iodide flow cytometry, B16; type: cell-based, mouse; settings: 18.8 μM, 24 h
Procedure: Apoptotic cell death was assessed by flow cytometry analysis of DNA fragmentation in cells stained with DNA-binding dye propidium iodide (PI). Following a 24 h incubation in 6-well plate, cells (2×10^5/well) were detached with trypsin, washed and fixed in 70% ethanol at 4° C. for 30 min. After washing in PBS, cells were resuspended in PBS containing 1 mg/ml RNase and propidium iodide (40 μg/ml) and kept at 37° C. in the dark for 30 min. Red fluorescence was analyzed with FACSCalibur flow cytometer (BD, Heidelberg, Germany) and distribution of cells among cell cycle phases was determined with Cell Quest Pro software (BD). Hypodiploid cells in sub-G0/G1 compartment were considered apoptotic.
FIG. 4. […] Results are calculated as indicated in materials and methods and presented as mean±SD from representative of three independent experiment (*p <0.05). […] After 24 h of cultivation without or with drugs, cells were stained with AO orange (B) or PI (C) and analyzed by flow cytometry. The data are presented as mean±SD from three independent experiments. *p<0.05, refers to untreated cultures. […] Cells were incubated with 18.8 μM of Sag or Saq-NO2 for 24 h. After that, the drugs were either removed or not from the cells and incubated for additional 24 h. Cell viability was determined by CV test after 24 and 48 h of incubation (right panels). The data are presented as mean±SD from three independent experiments. *p<0.05, refers to untreated cultures.

[3] = tested on: C6 cells; assay: Differentiation markers by cell-based ELISA, C6; set-up: species or system rat; settings: 18.8 μM, 24 h
Excerpt: A slightly modified method for cell-based ELISA (cELISA) by Versteeg (Versteed et al., 2000) was used to measure the expression of galactocerebroside, glial fibrilar acidic protein (GFAP), myelin basic protein (MBP), cyclin D3, p53 and p-AKT. Briefly, at the end of cultivation period cells were fixed in 4% paraformaldehyde, endogenous peroxydase was quenched with 1% H2O2 in PBS containing 0.1% Triton X-100 (PBST), and unspecific binding of antibodies blocked with PBST solution containing 10% FCS. Primary mouse monoclonal antibodies specific for rat/mouse p-Akt (1:200; Santa Cruz Biotechnology, Santa Cruz, Calif.), GFAP (1:200, BioYeda, Israel.), galactocerebroside (1:100; Boehringer Mannheim, Mannheim, Germany), MBP (1:100, Boehringer Mannheim, Mannheim, Germany), cyclin D3 (1:750, Santa Cruz Biotechnology, Santa Cruz, Calif.) and p53 (1:250, Santa Cruz Biotechnology, Santa Cruz, Calif.) were applied in PBST supplemented with 2% bovine serum albumin (PBSTB), followed by secondary peroxidase-conjugated goat anti-mouse IgG (1:2500 in PBSTB; GE Healthcare UK) for anti-GFAP and galactocerebroside or anti-rabbit IgG (1:2500, Healthcare UK) for anti-p-Akt, anti-cyclin D3 and anti-p53. All incubations were performed at 37° C. for 1 h. The absorbance at 450 nm was measured in an automated microplate reader 15 min after incubation with peroxydase substrate TMB and subsequently to addition of 0.1 M HCl. To facilitate comparison between treatments, the obtained absorbances were corrected for the cell number that was determined by crystal violet staining, as described in the original protocol. The results are presented as relative expression in comparison with the control value.
FIG. 5. […] Cell morphology was assessed by light microscopy (A). Markers of cell differentiation of C6 and B16 cells, galactocerebroside, GFAP and MBP were determined by cELISA and melanin and tyrosinase activity were determined as described in material and methods (B). Cyclin D3 and p53 expression were evaluated by cELISA (C, upper panels), immunocytochemistry (C, middle panel) and Western blot (C, lower panel). The results were presented as mean±SD from three independent experiments. *p<0.05, refers to untreated cultures.

SMILES | effect on viability of non-transformed primary astrocytes [1] | cell cycle distribution [2] | expression of GFAP [3] | expression of galactocerebroside [3] | apoptosis [2]
CC(C)(C)NC(=O)[C@@H]1C[C@@H]2CCCC[C@@H]2CN1C[C@@H](O)[C@H](Cc1ccccc1)NC(=O)[C@H](CC(N)=O)NC(=O)c1ccc2ccccc2n1 [Saq, Saquinavir, reference compound] | highly toxic | did not show considerably different distribution from control | decreased or unchanged | strongly up regulated | 
CC(C)(C)NC(=O)[C@@H]1C[C@@H]2CCCC[C@@H]2CN1C[C@@H](O[N+](=O)[O-])[C@H](Cc1ccccc1)NC(=O)[C@H](CC(N)=O)NC(=O)c1ccc2ccccc2n1 [Saq-NO2, nitric ester of Saquinavir] | did not affect the viability | accumulation of cells in G2/M phase | decreased or unchanged | strongly up regulated | statistically significant apoptosis
